Ki data for one molecule are collected here from ChEMBL document CHEMBL1125229 (J Med Chem, 1991).

pKi: −log10 of the molar value.

The target in this assay is Angiotensin-converting enzyme (Homo sapiens, UniProt P12821). In words: Compound was tested for its inhibitory potency against angiotensin I converting enzyme.
Chain of Angiotensin-converting enzyme (P12821 whole entry): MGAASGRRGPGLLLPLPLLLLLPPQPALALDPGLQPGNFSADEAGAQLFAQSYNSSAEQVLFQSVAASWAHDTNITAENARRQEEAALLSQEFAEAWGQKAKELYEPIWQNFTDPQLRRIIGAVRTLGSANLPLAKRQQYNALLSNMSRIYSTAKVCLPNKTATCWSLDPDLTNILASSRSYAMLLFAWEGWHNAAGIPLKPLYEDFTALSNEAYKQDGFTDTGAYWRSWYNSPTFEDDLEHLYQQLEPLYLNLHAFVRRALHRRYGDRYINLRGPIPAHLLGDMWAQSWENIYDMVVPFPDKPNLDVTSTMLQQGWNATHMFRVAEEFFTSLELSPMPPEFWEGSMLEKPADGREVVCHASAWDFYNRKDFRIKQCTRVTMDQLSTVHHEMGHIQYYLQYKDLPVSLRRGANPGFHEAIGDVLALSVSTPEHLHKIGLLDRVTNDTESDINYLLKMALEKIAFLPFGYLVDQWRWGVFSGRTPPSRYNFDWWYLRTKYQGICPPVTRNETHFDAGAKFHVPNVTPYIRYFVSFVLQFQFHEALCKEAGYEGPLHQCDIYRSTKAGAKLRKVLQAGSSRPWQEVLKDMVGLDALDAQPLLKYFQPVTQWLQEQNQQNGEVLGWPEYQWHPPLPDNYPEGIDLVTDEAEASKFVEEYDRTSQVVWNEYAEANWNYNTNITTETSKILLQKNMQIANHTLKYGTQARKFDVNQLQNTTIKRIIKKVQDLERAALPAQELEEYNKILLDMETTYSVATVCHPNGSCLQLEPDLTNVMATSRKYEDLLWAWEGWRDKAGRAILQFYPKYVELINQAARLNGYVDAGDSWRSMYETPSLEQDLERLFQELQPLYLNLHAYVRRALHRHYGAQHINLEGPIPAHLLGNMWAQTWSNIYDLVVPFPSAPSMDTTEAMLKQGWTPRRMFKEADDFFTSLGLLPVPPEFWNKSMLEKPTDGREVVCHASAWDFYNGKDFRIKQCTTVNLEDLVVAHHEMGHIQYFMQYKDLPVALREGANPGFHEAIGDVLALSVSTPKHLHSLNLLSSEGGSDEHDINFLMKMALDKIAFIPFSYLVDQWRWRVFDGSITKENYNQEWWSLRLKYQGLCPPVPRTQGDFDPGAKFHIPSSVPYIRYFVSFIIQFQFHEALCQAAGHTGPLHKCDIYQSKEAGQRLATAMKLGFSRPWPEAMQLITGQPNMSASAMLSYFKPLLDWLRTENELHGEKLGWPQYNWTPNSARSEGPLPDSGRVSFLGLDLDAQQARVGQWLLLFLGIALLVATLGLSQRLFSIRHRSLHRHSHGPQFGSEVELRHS

What is called pKi is the negative decadic logarithm of the Ki, by convention in mol/L. Lower therefore signals a high Ki. `O=C(O)C(CCc1ccccc1)NC1Cc2ccccc2[C@H]2CCC[C@@H](C(=O)O)N2C1=O` (stereo partly specified) had a pKi of 8.92.
